SMILES strings stand for the structures.

This assay concerns the target T1, human CRTH2 (Homo sapiens, UniProt Q9Y5Y4).
T1 construct: expressed in transfected cells
T1 sequence (Q9Y5Y4 1-395): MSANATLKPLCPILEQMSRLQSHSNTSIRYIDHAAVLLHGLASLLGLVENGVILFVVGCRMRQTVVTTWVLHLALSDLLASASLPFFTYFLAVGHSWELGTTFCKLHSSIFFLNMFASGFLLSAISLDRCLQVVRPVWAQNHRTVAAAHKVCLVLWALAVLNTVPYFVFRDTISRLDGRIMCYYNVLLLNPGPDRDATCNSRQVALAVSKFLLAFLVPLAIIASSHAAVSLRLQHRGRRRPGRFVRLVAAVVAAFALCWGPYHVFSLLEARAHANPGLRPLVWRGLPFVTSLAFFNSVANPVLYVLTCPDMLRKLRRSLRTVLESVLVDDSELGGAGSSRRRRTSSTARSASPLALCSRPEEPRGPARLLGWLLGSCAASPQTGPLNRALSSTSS
Briefly: Human CRTH2 Receptor Binding Assay. Conditions: whole cell binding, CHO-K1 cells expressing human CRTH2, 20 nM [3H]ramatroban as competing radioligand. An excerpt:
A whole cell receptor binding assay using [^3H]ramatroban as the competing radioactive ligand was employed to evaluate the compound binding activity to human CRTH2. The radioactive ligand [^3H]ramatroban was synthesized according to Sugimoto et. al. (Eur. J. Pharmacol. 524, 30-37, 2005) to a specific activity of 42 Ci/mmol.
A cell line stably expressing human CRTH2 was established by transfecting CHO-K1 cells with two mammalian expression vectors that harbored human CRTH2 and G-alpha16 cDNAs, respectively, using FuGene® 6 transfection reagent (from Roche). Stable clones expressing CRTH2 were selected by staining each clone with BM16 (BD Pharmingen™ from BD Biosciences, a division of Becton, Dickinson and Company), which is a rat monoclonal antibody to human CRTH2. The cells were maintained as monolayer cultures in Ham's F-12 medium containing 10% fetal bovine serum, 100 units/mL penicillin, 100 μg/mL streptomycin, 2 mM glutamine, 0.5 mg/mL G418 (geneticin) for CRTH2, and 0.2 mg/mL hygromycin-B (for G-alpha 16). For whole cell receptor binding assay, the monolayer cells were rinsed once with PBS (phosphate buffered saline), dissociated using ethylenediaminetetraacetate (Versene™ EDTA from the Lonza Inc.), and suspended in PBS containing 10 mM MgCl2 and 0.06% BSA (bovine serum albumin) at 1.5×10^6 cells/mL.
The binding reactions (0.2 mL) were performed in 96-well plates at room temperature in PBS containing 1.5×10^5 cells, 10 mM MgCl2, 0.06% BSA, 20 nM [^3H]ramatroban, and test compound at various concentrations. After 1 hour of binding reactions, the cells were harvested on GF™/B filter microplates (microtiter plates with embedded glass fiber from PerkinElmer, Inc.) and washed 5 times with PBS using a Filtermate™ Harvester (a cell harvester that harvests and washes cells from microplates from PerkinElmer, Inc.). The radioactivities bound to the cells were determined using a microplate scintillation counter (TopCount® NXT, from PerkinElmer, Inc.) after adding 50 μL of Microscint™ 20 scintillation fluid (from PerkinElmer, Inc.) to each well of the filter plates. The radioactivity from non-specific binding was determined by replacing compound with 10 μM of 15(R)-15-methyl PGD2 (from Cayman Chemical Company) in the reaction mixtures. The radioactivity bound to the cells in the absence of compound (total binding) was determined by replacing compound with 0.25% of DMSO (dimethyl sulfoxide) in the reaction mixture. Specific binding data were obtained by subtracting the radioactivity of non-specific binding from each binding data.
The IC50 value is defined as the concentration of the tested compound that is required for 50% inhibition of total specific binding. In order to calculate the IC50 value, the percent inhibition data were determined for 7 concentrations for each compound. The percent inhibition for a compound at each concentration was calculated according to the following formula, [1-(specific binding in the presence of compound)/(total specific binding)]×100. The IC50 value was then obtained by fitting the percent inhibition data to a sigmoidal dose-response (4 parameter logistic) model in the XLfit® software Excel add-in program [from ID Business Solutions Ltd., model 205, where F(x)=(A+(B−A)/(1+((C/x)^D)))].
For orientation: IC50 means the midpoint of a concentration-inhibition curve. The low end stands for inhibition by little substance, the high end for a need for much substance. For `O=C(O)COc1cccc2c1CCCC2NS(=O)(=O)c1cccc(Oc2ccccc2)c1` (centres unmarked) [Example 1-3, [5-(3-Phenoxy-benzenesulfonylamino)-5,6,7,8-tetrahydro-naphthalen-1-yloxy]-acetic acid], the IC50 amounted to 200 nM.
Under `Cc1cc(-c2ccc(S(=O)(=O)N[C@@H]3CCCc4c(OCC(=O)O)cccc43)cc2)cc(C(C)(C)C)c1` [Example 3-45, [(R)-5-(3′-tert-Butyl-5′-methyl-biphenyl-4-sulfonylamino)-5,6,7,8-tetrahydro-naphthalen-1-yloxy]-acetic acid] stands 5.9 nM; under `O=C(O)COc1cccc2c1CCCC2NS(=O)(=O)c1ccc(-c2ccc(OC(F)(F)F)cc2)cn1` (centres unmarked) [Example 3-62, {5-[5-(4-Trifluoromethoxy-phenyl)-pyridine-2-sulfonylamino]-5,6,7,8-tetrahydro-naphthalen-1-yloxy}-acetic acid], 70.7 nM.
Turning to `O=C(O)COc1cccc2c1CCC[C@H]2NS(=O)(=O)c1ccc(-c2ccc(Cl)cc2)cc1` [Example 1-9, [(R)-5-(4′-Chloro-biphenyl-4-sulfonylamino)-5,6,7,8-tetrahydro-naphthalen-1-yloxy]-acetic acid], the half-inhibitory concentration (IC50) stood at 84.1 nM.
For `CS(=O)(=O)c1cncc(-c2ccc(S(=O)(=O)NC3CCCc4c(OCC(=O)O)cccc43)cc2)c1` (centres unmarked) [Example 3-16, {5-[4-(5-Methanesulfonyl-pyridin-3-yl)-benzenesulfonylamino]-5,6,7,8-tetrahydro-naphthalen-1-yloxy}-acetic acid], the IC50 came to 20.3 nM.
`O=C(O)COc1cccc2c1CCCC2NS(=O)(=O)c1cnc(Oc2ccc(F)cc2Cl)c(Br)c1` (centres unmarked) [Example 2-1, {5-[5-Bromo-6-(2-chloro-4-fluoro-phenoxy)-pyridine-3-sulfonylamino]-5,6,7,8-tetrahydro-naphthalen-1-yloxy}-acetic acid] gave a half-inhibitory concentration (IC50) of 76.4 nM.
`C[S+]([O-])c1cccc(-c2ccc(S(=O)(=O)N[C@@H]3CCCc4c(OCC(=O)O)cccc43)cc2)c1` (stereo partly drawn) [Example 4-1, [(R)-5-(3′-Methanesulfinyl-biphenyl-4-sulfonylamino)-5,6,7,8-tetrahydro-naphthalen-1-yloxy]-acetic acid]: the half-maximal inhibitory concentration (IC50) stood at 13.5 nM.
Under `CC(=O)c1ccc(-c2ccc(S(=O)(=O)N[C@@H]3CCCc4c(OCC(=O)O)cccc43)cc2)cc1` [Example 1-10, [(R)-5-(4′-Acetyl-biphenyl-4-sulfonylamino)-5,6,7,8-tetrahydro-naphthalen-1-yloxy]-acetic acid] stands 67.4 nM.
As for `O=C(O)COc1cccc2c1CCCC2NS(=O)(=O)c1cnc(Oc2ccc(CCO)cc2)c(Br)c1` (centres unmarked) [Example 2-22, (5-{5-Bromo-6-[4-(2-hydroxy-ethyl)-phenoxy]-pyridine-3-sulfonylamino}-5,6,7,8-tetrahydro-naphthalen-1-yloxy)-acetic acid], the half-inhibitory concentration (IC50) was determined as 31.7 nM.
In turn, `O=C(O)COc1cccc2c1CCC[C@H]2NS(=O)(=O)c1ccc(-c2ccc(O)cc2)cc1` [Example 3-23, [(R)-5-(4′-Hydroxy-biphenyl-4-sulfonylamino)-5,6,7,8-tetrahydro-naphthalen-1-yloxy]-acetic acid] had an IC50 of 124 nM.
For the compound `O=C(O)COc1cccc2c1CCC[C@H]2NS(=O)(=O)c1ccc(-c2ccc(F)cc2)cc1` [Example 1-7, [(R)-5-(4′-Fluoro-biphenyl-4-sulfonylamino)-5,6,7,8-tetrahydro-naphthalen-1-yloxy]-acetic acid], the IC50 was 52.6 nM.
The compound `O=C(O)COc1cccc2c1CCC[C@H]2NS(=O)(=O)c1ccc(-c2cccc([N+](=O)[O-])c2)cc1` [Example 3-41, [(R)-5-(3′-Nitro-biphenyl-4-sulfonylamino)-5,6,7,8-tetrahydro-naphthalen-1-yloxy]-acetic acid] displayed an IC50 of 23.9 nM.
Take `Cc1cc(-c2ccc(S(=O)(=O)N[C@@H]3CCCc4c(OCC(=O)O)cccc43)nc2)cc(C(C)(C)C)c1` [Example 3-48, {(R)-5-[5-(3-tert-Butyl-5-methyl-phenyl)-pyridine-2-sulfonylamino]-5,6,7,8-tetrahydro-naphthalen-1-yloxy}-acetic acid]: the IC50 stood at 4.8 nM.
Take `O=C(O)COc1cccc2c1CCC[C@H]2NS(=O)(=O)c1ccc(Oc2ccc(F)cc2)c(C(F)(F)F)c1` [Example 2-42, {(R)-5-[4-(4-Fluoro-phenoxy)-3-trifluoromethyl-benzenesulfonylamino]-5,6,7,8-tetrahydro-naphthalen-1-yloxy}-acetic acid]: the IC50 worked out at 11.2 nM.
As for `Cc1cc(C)cc(Oc2ncc(S(=O)(=O)NC3CCCc4c(OCC(=O)O)cccc43)cc2Br)c1` (centres unmarked) [Example 2-15, {5-[5-Bromo-6-(3,5-dimethyl-phenoxy)-pyridine-3-sulfonylamino]-5,6,7,8-tetrahydro-naphthalen-1-yloxy}-acetic acid], the IC50 worked out at 75.2 nM.
In the case of `O=C(O)COc1cccc2c1CCCC2NS(=O)(=O)c1ccc(-c2cc(F)ccn2)cc1` (centres unmarked) [Example 3-1, {5-[4-(4-Fluoro-pyridin-2-yl)-benzenesulfonylamino]-5,6,7,8-tetrahydro-naphthalen-1-yloxy}-acetic acid], the IC50 is 55.1 nM.
The compound `CN([C@@H]1CCCc2c(OCC(=O)O)cccc21)S(=O)(=O)c1cc(C(F)(F)F)cc(S(=O)(=O)c2ccc(Cl)cc2)c1` [Example 8-1, ((R)-5-{[3-(4-Chloro-benzenesulfonyl)-5-trifluoromethyl-benzenesulfonyl]-methyl-amino}-5,6,7,8-tetrahydro-naphthalen-1-yloxy)-acetic acid] had an IC50 of 2.9 nM.
As for `Cc1cccc(-c2ccc(S(=O)(=O)NC3CCCc4c(OCC(=O)O)cccc43)cc2)n1` (centres unmarked) [Example 3-9, {5-[4-(6-Methyl-pyridin-2-yl)-benzenesulfonylamino]-5,6,7,8-tetrahydro-naphthalen-1-yloxy}-acetic acid], the IC50 worked out at 74.9 nM.
Take `N#Cc1cccc(Oc2ncc(S(=O)(=O)NC3CCCc4c(OCC(=O)O)cccc43)cc2Br)c1` (centres unmarked) [Example 2-6, {5-[5-Bromo-6-(3-cyano-phenoxy)-pyridine-3-sulfonylamino]-5,6,7,8-tetrahydro-naphthalen-1-yloxy}-acetic acid]: the IC50 came out at 60.3 nM.
Compound `O=C(O)COc1cccc2c1CCCC2NS(=O)(=O)c1ccc(-c2cccnc2F)cc1` (centres unmarked) [Example 3-3, {5-[4-(2-Fluoro-pyridin-3-yl)-benzenesulfonylamino]-5,6,7,8-tetrahydro-naphthalen-1-yloxy}-acetic acid] yielded a half-maximal inhibitory concentration (IC50) of 203 nM.
Compound `CN(C)C(=O)c1ccc(-c2ccc(S(=O)(=O)N[C@@H]3CCCc4c(OCC(=O)O)cccc43)cc2)cc1` [Example 3-30, [(R)-5-(4′-Dimethylcarbamoyl-biphenyl-4-sulfonylamino)-5,6,7,8-tetrahydro-naphthalen-1-yloxy]-acetic acid] returned an IC50 of 67.1 nM.
`O=C(O)COc1cccc2c1CCCC2NS(=O)(=O)c1cnc(Oc2ccc3c(c2)CCC3)c(Br)c1` (centres unmarked) [Example 2-17, {5-[5-Bromo-6-(indan-5-yloxy)-pyridine-3-sulfonylamino]-5,6,7,8-tetrahydro-naphthalen-1-yloxy}-acetic acid] returned an IC50 of 115 nM.
Compound `Cc1ccc(-c2ccc(S(=O)(=O)N[C@@H]3CCCc4c(OCC(=O)O)cccc43)cc2)cc1` [Example 1-2, [(R)-5-(4′-Methyl-biphenyl-4-sulfonylamino)-5,6,7,8-tetrahydro-naphthalen-1-yloxy]-acetic acid] had an IC50 of 51.6 nM.

The values above are taken from US8163781B2, “Bi-aryl aminotetralines” (Hoffman-La Roche Inc., priority 2008, dated 2012).
